Biological target: HLA-A*02:01 (Homo sapiens, UniProt P04439, D140Y/D185E/D98H/E176V/E277Q/G131W/G231S/I119V/I121R/I166T/I218V/L300P/L318F/N151K/N90K/P208A/P217A/Q86G/Q94H/R138H/R169H/T345S)
Assay: ELISA-based assay of affinity (KD) to HLA-A*02:01
Format: binding
Details: FIG. 5

binding to HLA-A*02:01 (dissociation constant KD, in words)	Substance
very good binding	KIQEILTQV [IGF2BP3-001, HLA-A*02-presented tumor-associated peptide]
strong binder	MET-001: control peptide, strong binder to HLA-A*02:01 (YVDPVITSI)

Reference: patent US10383931B2, “Peptides and combination of peptides for use in immunotherapy against cancers” (IMMATICS BIOTECHNOLOGIES GMBH, priority 2016, dated 2019)
